Measured values published in patent publication US20170143712A1, “Methods of Treating Cancers, Immune and Autoimmune Diseases, and Inflammatory Diseases Based on BTK Occupancy and BTK Resynthesis Rate” (Acerta Pharma B.V., priority 2014, published 2017).

How the values were obtained:
Format in all cases: in vivo
[1] = test system: systemic lupus erythematosus (SLE) in MRL/MpJFASlpr mice; experiment: MRL/MpJFASlpr mouse model of systemic lupus erythematosus; conditions: 15 mg/kg IP QD
Protocol: A study designed to determine the effects of candidate anti-inflammatory agent Formula (II) in oral (PO), daily (QD) administration in the treatment of systemic lupus erythematosus (SLE) in MRL/MpJFASlpr mice. Formula (II) was preformulated in vehicle (0.4% HPMC, 0.1% Tween 80, with simethicone for antifoaming). The female MRL/MpJFASlpr mice were dosed with vehicle or Formula (II) (1, 5, or 25 mg/kg) daily (QD) by the oral (PO) route dosing, or they were dosed QD by the intraperitoneal (IP) route with the reference compound cyclophosphamide (15 mg/kg). Prior to dosing, the candidate anti-inflammatory agent was reconstituted either by vortexing or stirring. […]
Female MRL/MpJFASlpr mice (n=50) that were 8-9 weeks old and weighed approximately 28-41 grams (mean 34 g) at enrollment (mouse age approx. 12 weeks) were obtained from The Jackson Laboratory, Bar Harbor, Me. (stock number 000485). These mice were housed 3-5/cage in shoe-box polycarbonate cages with wire tops, wood chip bedding, and suspended food and water bottles. No concurrent medications were given.
When they were 12 weeks old (study day 0), the female MRL/MpJFASlpr mice (n=10/group) were randomized by body weight into 5 groups as shown above. Treatment was initiated after randomization and continued for […] (mouse age 12 weeks to 23 weeks).
Starting on study week one, and then every week thereafter urine from each animal was tested for proteinuria using the Clinitech Multistick test strip (Bayer). The animals were also observed daily for significant clinical signs, moribundity and mortality. […] Efficacy evaluation was based on animal body weights, proteinuria analysis, lymphadenopathy scores, skin lesion scores, organ weights, anti-dsDNA titers, clinical chemistry parameters, and histopathologic evaluation of the kidneys.
Any animals showing signs of morbundity were terminated immediately. At necropsy (3 h post-dose, mouse age 23 weeks), all remaining animals were anesthetized with Isoflurane and bled via cardiac puncture for serum and plasma (Li Heparin). The animals were bled to exsanguinate then euthanized by cervical dislocation. Spleens, kidneys (paired), and lymph nodes were collected and weighed. Kidneys were collected into 10% neutral buffered formalin (NBF). Spleens were placed in RPMI 1% FBS media for splenocyte isolation. Serum samples for potential clinical chemistry analysis were stored frozen at −80° C. until shipment to Antech Diagnostics. Plasma samples were stored frozen at −80° C. for mouse antidsDNA IgG analysis by ELISA.
Blood samples were drawn via cardiac puncture from Isoflurane anesthetized animals into serum separator microtainer tubes for clinical chemistries. Samples were shipped to Antech Diagnostics for analysis.

[2] = test system: established type II collagen-induced arthritis (CIA) in DBA/1 mice; experiment: Mouse established CIA, dosing from arthritis day 8, QD or BID (Example 11)
Source text: A study was designed to determine the efficacy of a covalently acting BTK inhibitor, Formula (II) in inhibiting acute inflammation, pannus formation, cartilage destruction, and bone resorption associated with established type II collagen-induced arthritis (CIA) in DBA/1 mice. Immunization with heterologous type II collagen (CII) induces arthritis in mice of the DBA/1 strain, which is genetically susceptible to this disease. To develop an experimental model of autoimmunity more adequate for the study of human rheumatoid arthritis (RA), male DBA/1 mice were injected intradermally (ID) with bovine type II collagen to induce arthritis as reported by Trentham et al (Trentham D E, Townes A S, Kang A H Autoimmunity to type II collagen: an experimental model of arthritis. J. Exper. Med. 1977, 146:857-868) and Bendele A (Bendele A, Animal models of rheumatoid arthritis. J. Musculoskelet. Neuronal Interact. 2001, 1(4):377-85).
Following acclimatization, 6-7 week old male DBA/1 mice (n=10/group for arthritis) were immunized at the base of the tail, with 150 μL of Freund's Complete Adjuvant (Difco, Detroit, Mich.) containing 1 mg/mL bovine type II collagen by intradermal injection. Immunizations were performed day 0 and again on day 21. On study days 25-26, on day 8 following onset of arthritis, the mice were randomized into treatment groups. […] Dosing began on arthritis day 8 by oral gavage. Groups were treated with vehicle (0.4% HPMC, 0.2% Tween 80), Formula (II) at 25 mg/kg QD, Formula (II) at 12.5 mg/kg BID, or the reference compound dexamethasone (Dex) at 0.2 mg/kg QD. These animals were fasted overnight on arthritis day 20 (13 days after enrollment) prior to necropsy on arthritis day 21. Clinical scores were given for each of the paws (right front, left front, right rear, left rear) on arthritis days 1-21.
(§1) Efficacy evaluation was based on animal body weights, clinical arthritis scores, arthritis scores expressed as area under the curve (AUC), and histopathology on fore paws, hind paws, and knees. Histopathology results were expressed as 4 paws, knees only, or 6 joints (knees included). Day 19 was used as the endpoint for analysis of body weight change since the male DBA/1 mice were fasted overnight prior to necropsy on day 21.
Necropsies were conducted on fasted mice and terminal serum, fore paws, hind paws, and knees were collected into 10% neutral buffered formalin (NBF) for microscopy. Spleens were harvested and weighed.

[3] = test system: established type II collagen-induced arthritis (CIA) in DBA/1 mice; experiment: 14-day mouse established type II collagen-induced arthritis (CIA), PO QD (Example 10); conditions: 0.2 mg/kg PO QD; mean(SE)
Protocol: Prior to dosing, the candidate anti-inflammatory agents were reconstituted either by vortexing or stirring. The candidate anti-inflammatory agents were administered to the DBA/1 mice daily (QD) by the oral (PO) route.
Immunization with heterologous type II collagen (CII) induces arthritis in mice of the DBA/1 strain, which is genetically susceptible to this disease. To develop an experimental model of autoimmunity more adequate for the study of human rheumatoid arthritis (RA), male DBA/1 mice were injected intradermally (ID) with bovine type II collagen to induce arthritis as reported by Trentham et al (Trentham D E, Townes A S, Kang A H Autoimmunity to type II collagen: an experimental model of arthritis. J. Exper. Med. 1977, 146:857-868) and Bendele A (Bendele A, Animal models of rheumatoid arthritis. J. Musculoskelet. Neuronal Interact. 2001, 1(4):377-85). Male DBA/1 mice (n=114) that were 6-7 weeks old and weighed approximately 18-27 grams (mean 22 g) at enrollment (arthritis day 1) were obtained from Taconic Farms, Inc. The male DBA/1 mice were at least 6 weeks old at time of first immunization and were housed 3-5/cage in shoe-box polycarbonate cages with wire tops, wood chip bedding, and suspended food and water bottles. These animals were identified by a distinct number of ink marks at the base of the tail delineating animal number. After enrollment, all cages were labeled with protocol number, group number, and animal numbers.
The male DBA/1 (n=10/group for arthritis) were anaesthetized with Isoflurane, shaved at the base of the tail, and injected intradermally with 150 μL of Freund's Complete Adjuvant (Difco, Detroit, Mich.) containing bovine type II collagen (BBP, batch #7) (1 mg/ml) at the base of the tail on day 0 and again on day 21. […] Randomization was done after swelling was obviously established in at least one paw (score of 1) and attempts were made to ensure approximately equal mean scores of 0.5-1 across groups at the time of enrollment. […] The male DBA/1 mice were terminated on arthritis day 14 (3 hours post-dose).
as §1, with “evaluation of the administered anti-inflammatory agents” for “evaluation”, “13” for “19”, “14.” for “21.”

O=P1(N(CCCl)CCCl)NCCCO1 (stereo not drawn) [Cyclophosphamide, cyclophosphamide, reference compound]
Percent Survival [1]: 100%
anti-dsDNA IgG levels in plasma, reduction vs Vehicle Disease Controls [1]: 76%
Histopathology Glomerulus Diameter ([1]; All Animals, mean (SE)): *67.73 (2.10)
Histopathology Interstitial Inflammation ([1]; All Animals, mean (SE)): *0.95 (0.19)
Histopathology Summed Score ([1]; All Animals, mean (SE)): *2.18 (0.57)
Kidney (paired) Weight (g) ([1]; All Animals, mean (SE)): *0.432 (0.01) g
Change in Body Weight (g) wk 1-12 ([1]; Term Animals, mean (SE)): 3.30 (0.32) g
Histopathology Glomerulus Diameter ([1]; Term Animals, mean (SE)): *67.73 (2.10)
Histopathology Interstitial Inflammation ([1]; Term Animals, mean (SE)): *0.95 (0.19)
Histopathology Summed Score ([1]; Term Animals, mean (SE)): *2.18 (0.57)
Kidney (paired) Weight (g) ([1]; Term Animals, mean (SE)): *0.432 (0.01) g
absolute cumulative lymph node weights, reduction vs Vehicle Disease Controls ([1]; all animals): 87%
absolute kidney weights, reduction vs Vehicle Disease Controls ([1]; all animals): 23%
absolute mesenteric lymph node weights, reduction vs Vehicle Disease Controls ([1]; all animals): 76%
absolute spleen weights, reduction vs Vehicle Disease Controls ([1]; all animals): 77%
glomerulus crescent score, reduction ([1]; all animals): 100%
glomerulus diameter, reduction ([1]; all animals): 89%
glomerulus score, reduction ([1]; all animals): 88%
interstitial inflammation, reduction ([1]; all animals): 74%
percent of glomeruli with crescents, reduction ([1]; all animals): 100%
protein cast score, reduction ([1]; all animals): 90%
summed histopathology scores, reduction ([1]; all animals): 86%
vasculitis, reduction ([1]; all animals): 82%
serum clinical chemistries vs Vehicle Disease Controls ([1]; all animals or term animals only): significantly increased ALB, A/G, alkaline phosphatase (ALK), GLU, and Na/K and significantly reduced globulin (GLOB), BUN, BUN/creatinine, K, and AMY
urine protein scores vs Vehicle Disease Controls ([1]; all animals, mouse age 14-23 weeks): significantly reduced
lymphadenopathy scores vs Vehicle Disease Controls ([1]; mouse age 15-23 weeks, all or term animals): significantly reduced
skin lesion scores vs Vehicle Disease Controls ([1]; mouse age 20-23 weeks, all or term animals): significantly reduced
absolute cumulative lymph node weights, reduction vs Vehicle Disease Controls ([1]; term animals): 90%
absolute kidney weights, reduction vs Vehicle Disease Controls ([1]; term animals): 32%
absolute mesenteric lymph node weights, reduction vs Vehicle Disease Controls ([1]; term animals): 82%
absolute spleen weights, reduction vs Vehicle Disease Controls ([1]; term animals): 82%
glomerulus crescent score, reduction ([1]; term animals only): 100%
glomerulus diameter, reduction ([1]; term animals only): 85%
glomerulus score, reduction ([1]; term animals only): 86%
interstitial inflammation, reduction ([1]; term animals only): 70%
percent of glomeruli with crescents, reduction ([1]; term animals only): 100%
protein cast score, reduction ([1]; term animals only): 86%
summed histopathology scores, reduction ([1]; term animals only): 82%
vasculitis, reduction ([1]; term animals only): 80%
urine protein scores vs Vehicle Disease Controls ([1]; term animals only, mouse age 14-16 and 19-23 weeks): significantly reduced
body weight gain ([1]; week 1 to week 5): 1.03 g

C[C@@H]1C[C@H]2[C@@H]3CCC4=CC(=O)C=C[C@]4(C)[C@@]3(F)[C@@H](O)C[C@]2(C)[C@@]1(O)C(=O)CO [Dex, dexamethasone, reference compound]
AUC (All Paws) - Corrected for Initial Score ([2]; 0.2 mg/kg PO QD, mean(SE)): *−29.54(2.39)
Change in Body Weight (g) Days 1-19 ([2]; 0.2 mg/kg PO QD, mean(SE)): −0.17(0.28) g
Histopathology Summed Score Knees ([2]; 0.2 mg/kg PO QD, mean(SE)): *5.23(0.89)
Histopathology Summed Score Paws ([2]; 0.2 mg/kg PO QD, mean(SE)): *7.20(1.00)
Histopathology Summed Score Six-Joints ([2]; 0.2 mg/kg PO QD, mean(SE)): *6.54(0.91)
Paw Score AUC (All Paws) ([2]; 0.2 mg/kg PO QD, mean(SE)): *16.61(2.05)
absolute spleen weights, reduction vs vehicle controls ([2]; 0.2 mg/kg QD): 156%
knee bone resorption, reduction vs vehicle controls ([2]; 0.2 mg/kg QD): 88%
knee cartilage damage, reduction vs vehicle controls ([2]; 0.2 mg/kg QD): 39%
knee inflammation, reduction vs vehicle controls ([2]; 0.2 mg/kg QD): 57%
knee pannus formation, reduction vs vehicle controls ([2]; 0.2 mg/kg QD): 86%
six joint histopathology, reduction of summed scores ([2]; 0.2 mg/kg QD): 57%
summed knee scores, reduction vs vehicle controls ([2]; 0.2 mg/kg QD): 57%
AUC (All Paws) - Corrected for Initial Score [3]: *−5.85(0.73)
Change in Body Weight (g) [3]: −2.22(0.54) g
Histopathology Summed Score Knees [3]: *1.80(0.66)
Histopathology Summed Score Paws [3]: *0.09(0.09)
Histopathology Summed Score Six-Joints [3]: *0.66(0.21)
Paw Score AUC (All Paws) [3]: *1.30(0.37)
